Laboratory results taken from patent US20220071941A1, “THERAPIES FOR SQUAMOUS CELL CARCINOMAS” (Kura Oncology, Inc., priority 2018, published 2022).

System: squamous head and neck cancer with HRAS mutations
Assay: Phase II study of tipifarnib in subjects with HRAS mutant tumors (HNSCC cohort)
Format: in vivo, human
Method: A Phase II study was performed that investigated the antitumor activity, in terms of objective response rate, of tipifarnib in subjects with locally advanced, unresectable or metastatic, relapsed and/or refractory tumors that carry HRAS mutations and for whom there is no curative therapy available. Subjects were men and women over 18 years of age.
Inclusion criteria of the study were as follows: histologically or cytologically confirmed diagnosis of thyroid cancer (cohort 1) or squamous head and neck cancer (cohort 2) for which there is no curative therapy available; tumor that carries a missense HRAS mutation; subject consents to provide at least 10 unstained tumor slides for retrospective testing of HRAS gene tumor status; subject has measurable disease according to RECIST v1.1 and has relapsed or is refractory to prior therapy; at least 2 weeks since the last systemic therapy or radiotherapy regimen prior to enrolment; ECOG PS 0 or 1; acceptable liver function; acceptable renal function; and acceptable hematologic status.
Exclusion criteria of the study were as follows: prior treatment with an FTase inhibitor; history of relevant coronary heart disease or myocardial infarction within last 3 years, NYHA Grade III or greater congestive heart failure, cerebro-vascular attack within the prior year, or serious cardiac arrhythmia requiring medication except atrial fibrillation; known uncontrolled brain, leptomeningeal or epidural metastases (unless treated and well controlled for at least 4 weeks prior to Cycle 1 Day 1); controlled brain metastases that require continuous high dose corticosteroid use within 4 weeks of Day 1; non-tolerable>Grade 2 neuropathy or evidence of unstable neurological symptoms within 4 weeks first dose; major surgery, other than diagnostic surgery, within 4 weeks prior to first dose, without complete recovery; active, uncontrolled bacterial, viral, or fungal infections, requiring systemic therapy; or known infection with HIV, or an active infection with hepatitis B or hepatitis C.
The study comprised 36 participants and subjects were enrolled into two nonrandomized cohorts as follows: Cohort 1 was comprised of patients with malignant thyroid tumors with HRAS mutations; Cohort 2 was comprised of patients with squamous head and neck cancer with HRAS mutations. Patients received tipifarnib at a starting dose of 600-900 mg orally twice daily on days 1-7 and 15-21 of 28-day cycles.
The primary outcome measurement of the study was objective response rate. Additionally, progression-free survival, duration of response, and the number of subjects with adverse events and serious adverse events were also recorded as secondary outcome measures. Adverse events and serious adverse events were graded according to the NCI-CTCAE (Version 4.03).
Upon meeting the primary objective (objective response rate), the study was amended to continue enrollment of HNSCC patients (Cohort 2) in addition to patients with other SCCs (Cohort 3). These patients had tumors carrying high HRASm variant allele frequency (VAF >35% or if baseline serum albumin is >3.5 g/dL)

[1] = of the 15 HNSCC patients meeting HRASm VAF criteria

SMILES: Cn1cncc1[C@@](N)(c1ccc(Cl)cc1)c1ccc2c(c1)c(-c1cccc(Cl)c1)cc(=O)n2C [tipifarnib]
- overall response rate (15 HNSCC patients meeting HRASm VAF criteria, starting dose 600-900 mg orally twice daily on days 1-7 and 15-21 of 28-day cycles): 53%
- median progression-free survival (PFS), patients experiencing SD (95% CI 1.6 to 5.4 months): 4.5 months
- median progression-free survival (PFS), patients experiencing a PR (95% CI 5.3 to 19.5 months): 19 months
- overall median progression-free survival (PFS) (N=15, 95% CI 4.5 to 19.5 months): 5.4 months
- patients with at least 1 treatment-emergent adverse event (TEAE) (graded according to NCI-CTCAE Version 4.03): All patients
- most frequently observed drug-related Grade >3 TEAEs (occurring in ≥10% patients): blood and lymphatic system disorders, gastrointestinal disorders, and renal disorders
- confirmed partial responses (PR), number of patients [1]: 8
- stable disease (SD), number of patients [1]: 5
